# In PubChem BioAssay AID1963969 (Molecular Pharmacology Branch, DTP, NCI, 2024):
# “And” between values parts separate entries of the source, which are not always exact repeats. Equal values may be shown once.
# System: 817829-284-R-J1-PDC multi-cell spheroid viability
# Experiment: Anticancer human tumor 817829-284-R-J1-PDC patient-derived colon adenocarcinoma cell line growth inhibition [PI3K]
# Conditions: for viability, T/C: stronger effect = lower value
# Procedure, shortened: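 Tumor cells grown as multi-cell spheroids with HUVEC endothelial cells and MSC fibroblast-like stroma were treated with targeted agents combined with inavolisib, alpelisib, duvelisib or copanlisib. Doses fell in half-log steps from near clinical Cmax, else from 10 microM. Viability was measured.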
# [1] = curve of first compound, second compound 0.0316 µM
# [2] = curve of first compound, second compound 0.1 µM
# [3] = curve of first compound, second compound 0.316 µM
# [4] = curve of first compound, second compound 1 µM
# [5] = second compound 0.0316 µM, first compound 0.0316 µM
# [6] = second compound 0.0316 µM, first compound 0.1 µM
# [7] = second compound 0.0316 µM, first compound 0.316 µM
# [8] = second compound 0.0316 µM, first compound 1 µM
# [9] = second compound 0.0316 µM, first compound 3.16 µM
# [10] = second compound 0.0316 µM, first compound 10 µM
# [11] = second compound 0.1 µM, first compound 0.0316 µM
# [12] = second compound 0.1 µM, first compound 0.1 µM
# [13] = second compound 0.1 µM, first compound 0.316 µM
# [14] = second compound 0.1 µM, first compound 1 µM
# [15] = second compound 0.1 µM, first compound 3.16 µM
# [16] = second compound 0.1 µM, first compound 10 µM
# [17] = second compound 0.316 µM, first compound 0.0316 µM
# [18] = second compound 0.316 µM, first compound 0.1 µM
# [19] = second compound 0.316 µM, first compound 0.316 µM
# [20] = second compound 0.316 µM, first compound 1 µM
# [21] = second compound 0.316 µM, first compound 3.16 µM
# [22] = second compound 0.316 µM, first compound 10 µM
# [23] = second compound 1 µM, first compound 0.0316 µM
# [24] = second compound 1 µM, first compound 0.1 µM
# [25] = second compound 1 µM, first compound 0.316 µM
# [26] = second compound 1 µM, first compound 1 µM
# [27] = second compound 1 µM, first compound 3.16 µM
# [28] = second compound 1 µM, first compound 10 µM
# [29] = curve of first compound, second compound 0.00316 µM
# [30] = curve of first compound, second compound 0.01 µM
# [31] = second compound 0.00316 µM, first compound 0.0316 µM
# [32] = second compound 0.00316 µM, first compound 0.1 µM
# [33] = second compound 0.00316 µM, first compound 0.316 µM
# [34] = second compound 0.00316 µM, first compound 1 µM
# [35] = second compound 0.00316 µM, first compound 3.16 µM
# [36] = second compound 0.00316 µM, first compound 10 µM
# [37] = second compound 0.01 µM, first compound 0.0316 µM
# [38] = second compound 0.01 µM, first compound 0.1 µM
# [39] = second compound 0.01 µM, first compound 0.316 µM
# [40] = second compound 0.01 µM, first compound 1 µM
# [41] = second compound 0.01 µM, first compound 3.16 µM
# [42] = second compound 0.01 µM, first compound 10 µM
# 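Further: spheroids exposed to agents for seven days before readout.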
# 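Wherever viability, T/C is given: percent of vehicle DMSO control viability which is 100%.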
smiles,measurement,setting,value
Cn1nccc1Nc1nccc(-c2ccn(C(CO)c3ccc(Cl)c(F)c3)c(=O)c2)n1 (centres undefined) + Cc1nc(NC(=O)N2CCCC2C(N)=O)sc1-c1ccnc(C(C)(C)C(F)(F)F)c1,IC50,[1],7.87 µM
same,IC50,[2],4.8 µM
same,IC50,[3],6.44 µM
same,IC50,[4],4.65 µM
same,IC50,"curve of first compound, second compound 3.16 µM",4.88 µM
same,IC50,"curve of first compound, second compound 10 µM",4.81 µM
same,"viability, T/C",[5],83%
same,"viability, T/C",[6],66.9%
same,"viability, T/C",[7],92.2%
same,"viability, T/C",[8],90.7%
same,"viability, T/C",[9],81.6%
same,"viability, T/C",[10],41.6%
same,"viability, T/C",[11],79.8%
same,"viability, T/C",[12],77.3%
same,"viability, T/C",[13],76.3%
same,"viability, T/C",[14],75.3%
same,"viability, T/C",[15],63.2%
same,"viability, T/C",[16],26.6%
same,"viability, T/C",[17],87.8%
same,"viability, T/C",[18],99.5%
same,"viability, T/C",[19],72%
same,"viability, T/C",[20],74.6%
same,"viability, T/C",[21],81.6%
same,"viability, T/C",[22],30.6%
same,"viability, T/C",[23],68.6%
same,"viability, T/C",[24],69%
same,"viability, T/C",[25],62.1%
same,"viability, T/C",[26],107%
same,"viability, T/C",[27],60.9%
same,"viability, T/C",[28],28.5%
same,"viability, T/C","second compound 3.16 µM, first compound 0.0316 µM",54.2%
same,"viability, T/C","second compound 3.16 µM, first compound 0.1 µM",102%
same,"viability, T/C","second compound 3.16 µM, first compound 0.316 µM",86.1%
same,"viability, T/C","second compound 3.16 µM, first compound 1 µM",87.3%
same,"viability, T/C","second compound 3.16 µM, first compound 3.16 µM",67.3%
same,"viability, T/C","second compound 3.16 µM, first compound 10 µM",21.6%
same,"viability, T/C","second compound 10 µM, first compound 0.0316 µM",109%
same,"viability, T/C","second compound 10 µM, first compound 0.1 µM",103%
same,"viability, T/C","second compound 10 µM, first compound 0.316 µM",101%
same,"viability, T/C","second compound 10 µM, first compound 1 µM",94.2%
same,"viability, T/C","second compound 10 µM, first compound 3.16 µM",69%
same,"viability, T/C","second compound 10 µM, first compound 10 µM",16.4%
CC(Cn1ccc(-c2ccc(C#N)c(Cl)c2)n1)NC(=O)c1cc(C(C)O)[nH]n1 (centres undefined) + COc1c(OCCCN2CCOCC2)ccc2c3n(c(=NC(=O)c4cnc(N)nc4)nc12)CCN3,IC50,[29],> 10 µM
same,IC50,[30],6.45 µM
same,IC50,[1],5.82 µM
same,IC50,[2],< 0.0316 µM
same,IC50,[3],< 0.0316 µM
same,IC50,[4],< 0.0316 µM
same,"viability, T/C",[31],70.6%
same,"viability, T/C",[32],101%
same,"viability, T/C",[33],101%
same,"viability, T/C",[34],97.5%
same,"viability, T/C",[35],64.5%
same,"viability, T/C",[36],73.9%
same,"viability, T/C",[37],59.5%
same,"viability, T/C",[38],87.1%
same,"viability, T/C",[39],98.8%
same,"viability, T/C",[40],57.1%
same,"viability, T/C",[41],71.1%
same,"viability, T/C",[42],39.4%
same,"viability, T/C",[5],50.8%
same,"viability, T/C",[6],61.7%
same,"viability, T/C",[7],61.4%
same,"viability, T/C",[8],67.5%
same,"viability, T/C",[9],54.6%
same,"viability, T/C",[10],36.4%
same,"viability, T/C",[11],48.2%
same,"viability, T/C",[12],30.8%
same,"viability, T/C",[13],30.2%
same,"viability, T/C",[14],38.1%
same,"viability, T/C",[15],33.2%
same,"viability, T/C",[16],26.8%
same,"viability, T/C",[17],20.2%
same,"viability, T/C",[18],21.3%
same,"viability, T/C",[19],23.6%
same,"viability, T/C",[20],20.5%
same,"viability, T/C",[21],24.4%
same,"viability, T/C",[22],20.8%
same,"viability, T/C",[23],12.9%
same,"viability, T/C",[24],7.86%
same,"viability, T/C",[25],10.6%
same,"viability, T/C",[26],9.64%
same,"viability, T/C",[27],9.96%
same,"viability, T/C",[28],10.4%
CCN1CCN(Cc2ccc(Nc3ncc(F)c(-c4cc(F)c5nc(C)n(C(C)C)c5c4)n3)nc2)CC1,"viability, T/C",compound 0.00316 µM,81.3% and 60.8%
same,"viability, T/C",compound 0.01 µM,103% and 82.2%
same,"viability, T/C",compound 0.0316 µM,61.9% and 73.5%
same,"viability, T/C",compound 0.1 µM,68.2% and 59.2%
same,"viability, T/C",compound 0.316 µM,55.8% and 49.5%
same,"viability, T/C",compound 1 µM,58% and 51%
same,IC50,curve of compound,> 1 µM
CC(Nc1ccc2c(c1)OCCn1cc(N3C(=O)OCC3C(F)F)nc1-2)C(N)=O (centres undefined),"viability, T/C",compound 0.00316 µM,82.8% [middle of 6 runs]
same,IC50,"compound alone, run of 04/24/2023",> 1 µM and 0.28 µM and 1 µM
CC(Nc1ncnc2nc[nH]c12)c1cc2cccc(Cl)c2c(=O)n1-c1ccccc1 (centres undefined),"viability, T/C",compound 0.0316 µM,98.7% and 80.4%
same,"viability, T/C",compound 0.1 µM,78.1% and 107%
same,"viability, T/C",compound 0.316 µM,98.9% and 104%
same,"viability, T/C",compound 1 µM,89% and 74.1%
same,"viability, T/C",compound 3.16 µM,82.9% and 94.8%
same,"viability, T/C",compound 10 µM,66% and 70.4%
same,IC50,"compound alone, run of 04/25/2023",> 10 µM
CCCS(=O)(=O)Nc1ccc(F)c(C(=O)c2c[nH]c3ncc(-c4ccc(Cl)cc4)cc23)c1F + CC(Nc1ccc2c(c1)OCCn1cc(N3C(=O)OCC3C(F)F)nc1-2)C(N)=O,IC50,[29],2.23 µM
same,IC50,[30],1.68 µM
same,IC50,[1],3.74 µM
same,IC50,[2],< 0.0316 µM
same,IC50,[3],< 0.0316 µM
same,IC50,[4],< 0.0316 µM
same,"viability, T/C",[31],67%
same,"viability, T/C",[32],57.9%
same,"viability, T/C",[33],61.3%
same,"viability, T/C",[34],51.6%
same,"viability, T/C",[35],49.6%
same,"viability, T/C",[36],3.89%
same,"viability, T/C",[37],95.3%
same,"viability, T/C",[38],56.5%
same,"viability, T/C",[39],67.8%
same,"viability, T/C",[40],56%
same,"viability, T/C",[41],49.7%
same,"viability, T/C",[42],4.85%
same,"viability, T/C",[5],69.3%
same,"viability, T/C",[6],52.4%
same,"viability, T/C",[7],69.7%
same,"viability, T/C",[8],32.1%
same,"viability, T/C",[9],65.4%
same,"viability, T/C",[10],4.59%
same,"viability, T/C",[11],38.9%
same,"viability, T/C",[12],53%
same,"viability, T/C",[13],47.8%
same,"viability, T/C",[14],45.9%
same,"viability, T/C",[15],38.5%
same,"viability, T/C",[16],5.88%
same,"viability, T/C",[17],43.5%
same,"viability, T/C",[18],57.1%
same,"viability, T/C",[19],55%
same,"viability, T/C",[20],43.1%
same,"viability, T/C",[21],47.3%
same,"viability, T/C",[22],6.23%
same,"viability, T/C",[23],55.9%
same,"viability, T/C",[24],44%
same,"viability, T/C",[25],46.9%
same,"viability, T/C",[26],34%
same,"viability, T/C",[27],50.1%
same,"viability, T/C",[28],6.69%
CC1(C)CCC(CN2CCN(c3ccc(C(=O)NS(=O)(=O)c4ccc(NCC5CCOCC5)c([N+](=O)[O-])c4)c(Oc4cnc5[nH]ccc5c4)c3)CC2)=C(c2ccc(Cl)cc2)C1 + COc1c(OCCCN2CCOCC2)ccc2c3n(c(=NC(=O)c4cnc(N)nc4)nc12)CCN3,IC50,[29],> 10 µM
same,IC50,[30],> 10 µM
same,IC50,[1],> 10 µM
same,IC50,[2],< 0.0316 µM
same,IC50,[3],< 0.0316 µM
same,IC50,[4],< 0.0316 µM
same,"viability, T/C",[31],59.2%
same,"viability, T/C",[32],90.8%
same,"viability, T/C",[33],91.6%
same,"viability, T/C",[34],81.9%
same,"viability, T/C",[35],93.3%
same,"viability, T/C",[36],113%
same,"viability, T/C",[37],80.5%
same,"viability, T/C",[38],74.1%
same,"viability, T/C",[39],75.3%
same,"viability, T/C",[40],64.3%
same,"viability, T/C",[41],66.2%
same,"viability, T/C",[42],69.2%
same,"viability, T/C",[5],52.7%
same,"viability, T/C",[6],63.2%
same,"viability, T/C",[7],72.7%
same,"viability, T/C",[8],60.1%
same,"viability, T/C",[9],63%
same,"viability, T/C",[10],44.5%
same,"viability, T/C",[11],31.8%
same,"viability, T/C",[12],31.6%
same,"viability, T/C",[13],49.6%
same,"viability, T/C",[14],33.3%
same,"viability, T/C",[15],45.3%
same,"viability, T/C",[16],40.1%
same,"viability, T/C",[17],18.5%
same,"viability, T/C",[18],20.7%
same,"viability, T/C",[19],23.2%
same,"viability, T/C",[20],22.8%
same,"viability, T/C",[21],24.7%
same,"viability, T/C",[22],19.7%
same,"viability, T/C",[23],12.9%
same,"viability, T/C",[24],11.1%
same,"viability, T/C",[25],13.6%
same,"viability, T/C",[26],14.4%
same,"viability, T/C",[27],13.4%
same,"viability, T/C",[28],11.7%
